Data as given in patent publication US9393276B2, “Edible composition” (Conopco,Inc., priority 2012, dated 2016).

Key:
[1] = tested on: Rat Insulinoma cell lines (RIN-5F); assay: β-cell assay for protection against gluco-lipo toxicity (diabetes model); type: cell-based; settings: RIN-5F cells treated with glucose and Palmitate-BSA complex, 18 hrs, neutral red; change with respect to Control 2 (glucose and Palmitate only); wt % of ingredients as per example
Protocol: This RPMI 1640 medium contains 2 g/L of glucose supplemented with 25 mM HEPES (4-(2-hydroxyethyl)-1-piperazineethanesulfonic acid, SRL Cat No: 084023C).
After that a complete medium was prepared by adding 100 μL of 100 mM Sodium pyruvate (Sigma, Cat No: P5280) and 10% (vv) in 100 mL of RPMI 1640.
100 μL/well of complete medium with the added Rat Insulinoma cell (RIN-5F, ATCC (USA)) was plated in a 96 well flat bottom plate (NEST Biotechnology Co. Ltd, Cat No 701001) so that the cell concentration is maintained at a level of 3.5×10^4 cells/well. This plate was then introduced in an incubator (Thermo Scientific, Model 3111; conditions: 5% CO2, at 37° C.) for 24 hours.
2.267 g of ultra Fatty Acid Free BSA (Roche applied sciences, Cat No: 03117405001) was added to 100 mL of 150 mM NaCl and stirred constantly at a maintained temperature of ˜37° C. […] After that this solution was filtered with a syringe filter of pore size of 0.22 μm (Millipore®, Cat no: SLGPO33RS). • 3. […]
After 4 hrs the neutral red medium was removed by aspiration using a micropipette and cells were washed with 100 μL/well of PBS solution (same as prepared above) to remove the excess stain. […] The colorimetric reading (absorbance) of the bound stain was read at a wavelength of 540 nm in a microwell plate reader (BIO-RAD LAB INDIA, Model No. 680). The efficacy of the test ingredients were evaluated with respect to the Control 2.

[2] = tested on: Rat Insulinoma cell lines (RIN-5F); settings: 24 h
Protocol: Before starting the experiment it was needed to determine the cytotoxic dose for the Inula racemosa extract and theobromine. The cytotoxicity of both materials was determined as follows by Neutral red assay:
The Rat Insulinoma cell lines (RIN-5F, ATCC (USA)) was plated at a density of 3.5×10^4 cells/well (Volume 100 μL) in a 96 well plate (NEST Biotechnology Co. Ltd, Cat No 701001) and placed it in an incubator (Thermo Scientific, Model 3111; conditions: 5% CO2, at 37° C.) for 24 hours. After the incubation 10 μL of Inula racemosa water extract (at different concentration e.g. 10%, 1%, 0.1%, 0.01%, 0.001%, 0.0001% and 0.00001%) and 10 μL of theobromine solution (at different concentration e.g. 10%, 1%, 0.1%, 0.01%, 0.001%, 0.0001% and 0.00001%) were added to the culture and incubated for 24 hours in the same incubator. As a control in some wells there was no addition of either Inula racemosa or theobromine (only medium and cells). […]
The bound stain was extracted out from the cells by adding 150 μL of desorption solution and dissolved the dye completely. […] The absorbance of the stain extracted out from the cells was measured at 540 nm in a microwell plate reader (BIO-RAD LAB INDIA, Model No. 680).
The percentage of live cells was calculated using the below mentioned formula: […]

| SMILES | % change in cell viability [1] [%] | non-cytotoxic concentration [2] [%] |
| --- | --- | --- |
| Cn1cnc2c1c(=O)[nH]c(=O)n2C [E, Theobromine] | 5 ± 2 |  |
| Cn1cnc2c1c(=O)[nH]c(=O)n2C [theobromine, 3,7-dimethylxanthine] |  | ≤ 0.001 |
